Converted amounts (≈) assume the structure as drawn. Where two headings read alike, the source gives them in different places.
How the values were obtained:
S. aureus 133 = test: Minimum inhibitory concentration, micro broth dilution; assay type: cell-based
Protocol: (§1) MIC determinations were performed using the micro broth dilution method with an inoculum of 5×10^5 cfu/ml in BHI medium. Growth was read after 24 h of incubation at 37° C. Test compounds were dissolved in dimethyl sulfoxide and diluted to a concentration not higher than 2.5% dimethyl sulfoxide. For S. pneumoniae 1707/4 and E. faecalis 27263 16% bovine serum were added and incubated under microaerophilic conditions.

S. pneumoniae 1707/4 = test: as above; assay type: cell-based
Protocol: as §1

E. faecalis 27263 = test: as above; assay type: cell-based
Protocol: as §1

[1] = system: S30 extracts from S. aureus 133; test: Gram-positive in vitro coupled transcription/translation (T/T) assay, S. aureus S30 extract; assay type: biochemical
Protocol: A procedure similar to the preparation of S30 extracts described by Murray et. al. (2) was used for S. aureus. Brain heart infusion (BHI) medium (6 l) was inoculated with 250 ml overnight culture of S. aureus 133 grown in BHI at 37° C. with agitation (170 rpm). Cells were cultured at 37° C. until an OD595nm of 2.5 was reached prior to centrifugation at 6000×g for 15 min at 4° C. Pellets were washed once with 500 ml cold S30-buffer A (10 mM Tris-acetate pH 8.0, 14 mM Mg-acetate, 1 mM DTT, 1 M KCl) and once with 250 ml of cold S30-buffer A containing 50 mM KCl. Pellets were frozen for 1 h at −20° C. or overnight at −70° C., thawed on ice and resuspended to a final volume of 99 ml buffer B (10 mM Tris-acetate pH 8.0, 20 mM Mg-acetate, 1 mM DTT, 50 mM KCl). A 1.5 ml aliquote of lysostaphin (0.8 mg/ml) in buffer B was added to each of three centrifuge tubes and 33 ml of the cell suspension were added. Samples were incubated at 37° C. for 1 h with gentle agitation prior to the addition of 150 μl 0.5 M DTT. Lysed cells were centrifuged for 30 min at 30,000×g at 4° C. and the resulting pellet was washed once with 33 ml S30-buffer B. The pooled supernatants were recentrifuged at 30,000×g for 30 min at 4° C. 100 ml of the supernatant were incubated with 25 ml preincubation buffer (670 mM Tris-acetate pH 8.0, 20 mM Mg-acetate, 7 mM Na3-PEP, 7 mM DTT, 5.5 mM ATP, 70 μM amino acids complete [Promega], 75 μg pyruvate kinase [Sigma]/ml) for 30 min at 37° C. to translate mRNAs. The preincubated supernatants were dialysed at 4° C. against 2 l of 10 mM Tris-acetate pH 8.0, 14 mM Mg-acetate, 1 mM DTT, 60 mM KCl with one buffer change using a Spectra-Por dialysis bag with a molecular weight cutoff of 3,500. The dialysate was gently concentrated by covering the dialysis bag with polyethylene glycol 8,000 powder (Sigma) at 4° C. to a protein concentration of ˜10 mg/ml. The resulting S30 extracts were flash frozen and stored in aliquots at −70° C.
(§2) The final assay volume was 59 μl. Inhibitor (3 μl dissolved in 10% DMSO), plasmid DNA (10 μl of optimal concentration in water pH 8.0) and 46 μl S30 extract [optimal concentration in 23 μl premixed with 23 μl incubation buffer (0.5 M potassium acetate, 87.5 mM Tris/acetate pH 8.0, 67.5 mM ammonium acetate, 50 μg/ml folinic acid, 5 mM DTT, 87.5 mg/ml polyethylene glycol 8000, 5 mM ATP; 1.25 mM of each CTP, GTP and UTP; 0.02 mM amino acids, 50 mM phosphoenolpyruvate trisodium salt, 2.5 mM cyclic AMP, 250 μg of each E. coli tRNA/ml) were added and incubated at 30° C. for 1 h. When using pT7-FF as a template 0.05 μl or 0.1 μl (50 U/μl) T7-RNA-Polymerase (Gibco BRL) were added to the S30 extracts used in the assay. Newly synthesized luciferase was detected by measuring bioluminescence for 60 s in a luininometer after the addition of 50 μl substrate buffer containing luciferine (20 mM Tricine/Cl pH 7.8, 2.67 mM MgSO4, 0.1 mM EDTA, 33.3 mM DTT, 0.27 mM Coenzyme A, 0.47 mM luciferine, 0.53 mM ATP).
MIC (minimal inhibitory concentration) values were determined as described in Example 4. Numbers in square brackets relate to the unit in square brackets as given in the column heading.

[2] = system: S30 extracts from S. pneumoniae 1707/4; test: Gram-positive in vitro coupled transcription/translation (T/T) assay, S. pneumoniae S30 extract; assay type: biochemical
Protocol: S. pneumoniae 1707/4 was grown overnight at 37° C. on agar plates containing 5% sheep blood under microaerophilic conditions. Cells were collected and inoculated into 4.8 l of BHI medium containing 5% bovine serum prior to cultivation at 37° C. under microaerophilic conditions for 5 h. S30 extracts were prepared as described for S. aureus 133 with some modifications. Cells were harvested and washed by centrifugation at 20,000×g for 15 min. The resulting cell pellet was resuspended in 20 ml buffer B, 3 mg lysozyme were added, incubated for 40 min at 37° C. prior to the addition of 75 μl 0.5 M DTT. The S30 sediment was washed with 8 ml buffer B and 7 ml preincubation buffer were added to the pooled supernatants.
as §2
(§3) The shape of the inhibition profiles is more or less similar for these compounds, in case of Streptomycin the lower IC50 value for S. aureus 133 compared to E. faecalis 27263 can be seen. templates pXyl-FF and pT7-FF with S30 extracts of the indicated bacterial strains. […] MIC (minimal inhibitory concentration) values were determined as described in Example 4. Numbers in square brackets relate to the unit in square brackets as given in the column heading.

[3] = system: S30 extracts from E. faecalis 27263; test: Gram-positive in vitro coupled transcription/translation (T/T) assay, E. faecalis S30 extract; assay type: biochemical
Protocol: E. faecalis 26273 was grown overnight in 250 ml BHI medium containing 2% bovine serum at 37° C. under microaerophilic conditions. The overnight culture was used to inoculate 4.8 1 BHI medium, cells were incubated at 37° C. under microaerophilic conditions with agitation (170 rpm) until an OD600 nm of ˜1.6 was reached. Preparation of S30 extracts was done as described for S. aureus with the following exceptions. Cells were harvested and washed at 7000×g at 4° C. for 12 min and resuspended in 100 ml S30-buffer B. For cell lysis 15 mg lysozyme resuspended in 1 ml S30-buffer B were added and incubated for 2 h at 37° C. with agitation. To complete cell lysis extracts were passed once through a French Press at 600 psi.
as §2, §3

[4] = system: S30 extracts derived from all three Gram-positives; test: In vitro coupled T/T assay, for all three Gram-positive S30 extracts; assay type: biochemical, S. aureus, S. pneumoniae, E. faecalis; details: at high concentrations
Protocol: To validate the in vitro coupled T/T assay for screening of potential inhibitors of transcription and translation several antibiotics of known mode of action were tested.

[5] = Staphylococcus aureus, 133, BHI medium, 24 h, 37° C., read-out: MIC
[6] = Streptococcus pneumoniae, 1707/4, BHI medium, 16% bovine serum, microaerophilic, 24 h, 37° C., read-out: MIC
[7] = Enterococcus faecalis, 27263, BHI medium, 16% bovine serum, microaerophilic, 24 h, 37° C., read-out: MIC
[8] = template pT7-FF with T7 RNA polymerase, read-out: IC50
[9] = template pT7-FF, value in square brackets
[10] = template pXyl-FF, 50% inhibition of in vitro translation of luciferase, read-out: IC50
[11] = template pXyl-FF, value in square brackets
[12] = template pXyl-FF, read-out: IC50
[13] = Streptococcus pneumoniae, 1707/4, 24 h
[14] = Enterococcus faecalis, 27263, 24 h
[15] = BHI medium, 16% bovine serum, microaerophilic, 24 h, 37° C.

Structure (SMILES)	MIC (S. aureus 133; [5])	MIC (S. pneumoniae 1707/4; [6])	MIC (E. faecalis 27263; [7])	IC50 [1, 8]	IC50 [1, 9]	IC50 [1, 10]	IC50 [1, 11]	IC50 [2, 8]	IC50 [2, 9]	IC50 [3, 8]	IC50 [3, 9]	IC50 [3, 12]	IC50 [3, 11]	inhibition in the in vitro coupled T/T assay [4]	MIC (S. pneumoniae 1707/4; [13])	MIC (E. faecalis 27263; [14])	MIC (S. aureus 133; BHI medium, 24 h, 37° C.)	MIC (S. pneumoniae 1707/4; [15])	MIC (E. faecalis 27263; [15])	MIC (S. aureus 133; Staphylococcus aureus, 133, 24 h)
CO[C@H]1/C=C/O[C@@]2(C)Oc3c(C)c(O)c4c(O)c(c(/C=N/N5CCN(C)CC5)c(O)c4c3C2=O)NC(=O)/C(C)=C\C=C\[C@H](C)[C@H](O)[C@@H](C)[C@@H](O)[C@@H](C)[C@H](OC(C)=O)[C@@H]1C [Rifampicin]	< 0.05 µg/mL	< 0.05 µg/mL	3.1 µg/mL (≈ 3.77 µM)																	
CC[C@H]1OC(=O)[C@H](C)[C@@H](O[C@H]2C[C@@](C)(OC)[C@@H](O)[C@H](C)O2)[C@H](C)[C@@H](O[C@@H]2O[C@H](C)C[C@H](N(C)C)[C@H]2O)[C@](C)(O)C[C@@H](C)C(=O)[C@H](C)[C@@H](O)[C@]1(C)O [Erythromycin]	0.1 µg/mL (≈ 0.136 µM)	0.1 µg/mL (≈ 0.136 µM)	> 100 µg/mL	0.2 µM	0.15 µg/mL	0.2 µM	0.15 µg/mL	0.05 µM	0.04 µg/mL	0.4 µM	0.3 µg/mL	0.2 µM	0.15 µg/mL							
CC1(C)S[C@@H]2[C@H](NC(=O)[C@H](N)c3ccccc3)C(=O)N2[C@H]1C(=O)O [Ampicillin]	0.4 µg/mL (≈ 1.14 µM)	0.12 µg/mL (≈ 0.343 µM)	3.1 µg/mL (≈ 8.87 µM)	> 142 µM	> 50 µg/mL	> 285 µM	> 100 µg/mL	> 285 µM	> 100 µg/mL	> 142 µM	> 50 µg/mL	> 142 µM	> 50 µg/mL	no or only weak inhibition						
COc1c(N2C[C@@H]3CCCN[C@@H]3C2)c(F)cc2c(=O)c(C(=O)O)cn(C3CC3)c12 [Moxifloxacin]	0.06 µg/mL (≈ 0.149 µM)														0.25 µg/mL (≈ 0.623 µM)	0.5 µg/mL (≈ 1.25 µM)				
CC(=O)NC[C@H]1CN(c2ccc(N3CCOCC3)c(F)c2)C(=O)O1 [Linezolid]	2 µg/mL (≈ 5.93 µM)	1 µg/mL (≈ 2.96 µM)	2 µg/mL (≈ 5.93 µM)	4.1 µM	1.2 µg/mL	4.1 µM	1.2 µg/mL	5.8 µM	1.7 µg/mL	3.4 µM	1.0 µg/mL	3.1 µM	0.9 µg/mL							
CN(C)[C@@H]1C(=O)C(C(N)=O)=C(O)[C@@]2(O)C(=O)C3=C(O)c4c(O)cccc4[C@@](C)(O)[C@H]3C[C@@H]12 [Tetracyclin]				0.6 µM	0.25 µg/mL	0.9 µM	0.4 µg/mL	0.45 µM	0.2 µg/mL	2.3 µM	1.0 µg/mL	1.8 µM	0.8 µg/mL				0.05 µg/mL (≈ 0.113 µM)	0.2 µg/mL (≈ 0.45 µM)	>100 µg/mL	
[H]/N=C(/N)N[C@H]1[C@H](O)[C@@H](O)[C@H](O[C@@H]2O[C@@H](C)[C@](O)(C=O)[C@H]2O[C@@H]2O[C@@H](CO)[C@H](O)[C@@H](O)[C@@H]2NC)[C@@H](N/C(N)=N\[H])[C@@H]1O [Streptomycin]	6.25 µg/mL (≈ 10.7 µM)	> 100 µg/mL	> 100 µg/mL	0.02 µM	0.03 µg/mL	0.05 µM	0.07 µg/mL	0.01 µM	0.02 µg/mL	0.41 µM	0.6 µg/mL	0.48 µM	0.7 µg/mL							
O=C(N[C@H](CO)[C@H](O)c1ccc([N+](=O)[O-])cc1)C(Cl)Cl [Chloramphenicol]	4 µg/mL (≈ 12.4 µM)	4 µg/mL (≈ 12.4 µM)	> 16 µg/mL	7.4 µM	2.4 µg/mL	9.3 µM	3.0 µg/mL	11.8 µM	3.8 µg/mL	16.7 µM	5.4 µg/mL	14.9 µM	4.8 µg/mL							
CN[C@H](CC(C)C)C(=O)N[C@H]1C(=O)N[C@@H](CC(N)=O)C(=O)N[C@H]2C(=O)N[C@H]3C(=O)N[C@H](C(=O)N[C@H](C(=O)O)c4cc(O)cc(O)c4-c4cc3ccc4O)[C@H](O)c3ccc(c(Cl)c3)Oc3cc2cc(c3O[C@@H]2O[C@H](CO)[C@@H](O)[C@H](O)[C@H]2O[C@H]2C[C@](C)(N)[C@H](O)[C@H](C)O2)Oc2ccc(cc2Cl)[C@H]1O [Vancomycin]				> 34 µM	> 50 µg/mL	> 67 µM	> 100 µg/mL	> 34 µM	> 50 µg/mL	> 34 µM	> 50 µg/mL	> 34 µM	> 50 µg/mL	no or only weak inhibition	0.25 µg/mL (≈ 0.173 µM)	2 µg/mL (≈ 1.38 µM)				0.25 µg/mL (≈ 0.173 µM)

— patent US20080050759A1, “Screening Assay for Anti-Bacterial Compounds” (Bayer Healthcare AG, priority 2003, published 2008)
